From ChEMBL document CHEMBL3039007, “Structure-based identification of OATP1B1/3 inhibitors” (Mol Pharmacol, 2013)

Tests used:
[1] = target: T1, Solute carrier organic anion transporter family member 1B3 (Homo sapiens, UniProt Q9NPD5); conditions: chinese hamster, cho, 10 µM
T1 sequence (Q9NPD5 whole entry): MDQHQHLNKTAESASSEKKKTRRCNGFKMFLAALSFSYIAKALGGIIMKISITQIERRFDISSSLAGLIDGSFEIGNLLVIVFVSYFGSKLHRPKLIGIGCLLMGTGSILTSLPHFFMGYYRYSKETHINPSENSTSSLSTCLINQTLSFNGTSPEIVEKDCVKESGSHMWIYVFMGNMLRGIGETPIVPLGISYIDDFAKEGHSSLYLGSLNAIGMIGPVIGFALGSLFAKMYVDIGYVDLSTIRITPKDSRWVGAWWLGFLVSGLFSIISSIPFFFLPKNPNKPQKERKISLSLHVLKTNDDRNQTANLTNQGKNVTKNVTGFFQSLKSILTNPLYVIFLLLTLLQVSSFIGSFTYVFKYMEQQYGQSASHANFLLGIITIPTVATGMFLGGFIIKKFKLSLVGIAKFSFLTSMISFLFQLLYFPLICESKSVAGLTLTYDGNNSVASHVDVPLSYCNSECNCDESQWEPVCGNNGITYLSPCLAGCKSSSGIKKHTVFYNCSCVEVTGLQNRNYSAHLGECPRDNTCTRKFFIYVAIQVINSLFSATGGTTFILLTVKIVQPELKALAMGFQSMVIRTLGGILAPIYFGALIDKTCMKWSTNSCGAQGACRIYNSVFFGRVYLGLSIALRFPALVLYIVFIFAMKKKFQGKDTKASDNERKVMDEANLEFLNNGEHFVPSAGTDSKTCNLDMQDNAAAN

[2] = target: T2, Solute carrier organic anion transporter family member 1B1 (Homo sapiens, UniProt Q9Y6L6); conditions: chinese hamster, cho, 10 µM
T2 sequence (Q9Y6L6 whole entry): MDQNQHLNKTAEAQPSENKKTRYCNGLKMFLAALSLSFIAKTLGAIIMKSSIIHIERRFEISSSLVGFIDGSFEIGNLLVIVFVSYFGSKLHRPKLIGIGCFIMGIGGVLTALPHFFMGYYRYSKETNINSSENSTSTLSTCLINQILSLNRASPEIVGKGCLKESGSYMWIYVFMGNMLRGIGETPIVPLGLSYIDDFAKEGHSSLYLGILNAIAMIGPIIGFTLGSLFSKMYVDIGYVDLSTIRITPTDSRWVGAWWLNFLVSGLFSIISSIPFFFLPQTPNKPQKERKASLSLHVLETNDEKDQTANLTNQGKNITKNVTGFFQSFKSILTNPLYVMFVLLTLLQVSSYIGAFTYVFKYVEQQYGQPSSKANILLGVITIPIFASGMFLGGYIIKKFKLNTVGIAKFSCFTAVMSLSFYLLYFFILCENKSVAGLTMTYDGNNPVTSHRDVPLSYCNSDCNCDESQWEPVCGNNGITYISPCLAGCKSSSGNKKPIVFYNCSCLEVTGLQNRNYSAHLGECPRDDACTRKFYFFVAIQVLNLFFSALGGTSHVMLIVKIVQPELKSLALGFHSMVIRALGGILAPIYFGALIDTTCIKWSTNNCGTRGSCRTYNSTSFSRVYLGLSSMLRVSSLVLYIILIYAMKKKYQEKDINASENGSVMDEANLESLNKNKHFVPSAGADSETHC

SMILES | residual activity [1] | residual activity [2]
Cc1cc(CC(=O)[O-])n(C)c1C(=O)c1ccc(Cl)cc1.O.O.[Na+] [ZOMEPIRAC SODIUM] | 118.7% | 132.9%
C=C[C@H]1C[N@@]2CC[C@H]1C[C@@H]2[C@@H](O)c1ccnc2ccccc12 [CINCHONINE] | 105.3% | 122.3%
Cl.OC1CCCCC1N1CCC(c2ccccc2)CC1 (stereo unspecified) [VESAMICOL HYDROCHLORIDE] | 101.2% | 64.34%
C=C[C@@](C)(O)CC[C@H]1C(=C)C[C@H](OC(C)=O)[C@H]2C(C)(C)CCC[C@]12C | 80.26% | 81.97%
CCCC(C)(COC(N)=O)COC(=O)NC(C)C (stereo unspecified) [CARISOPRODOL] | 103.8% | 106%
Br.COc1ccc2c(c1)[C@]13CCCC[C@@H]1[C@H](C2)N(C)CC3.O [DEXTROMETHORPHAN HYDROBROMIDE] | 78.21% | 49.83%
O=C(O)/C=C\C(=O)O.c1ccc2nc(N3CCNCC3)ccc2c1 [QUIPAZINE MALEATE] | 102.9% | 102.6%
COc1cccc(OC)c1OCCNCC1COc2ccccc2O1.Cl (stereo unspecified) [2- (2,6-DIMETHOXYPHENOXYETHYL)AMINOMETHYL-1,4-BENZODIOXANE HYDROCHLORIDE (WB 4101)] | 96.02% | 247.1%
CC(=O)O[C@@](C)(CCC=C(C)C)C1CC=C(C)CC1 (stereo partly specified) [BISABOLOL ACETATE] | 92.66% | 80.65%
CCOC(=O)NNc1nncc2ccccc12.Cl [TODRALAZINE HYDROCHLORIDE] | 106.5% | 100.5%
COc1c(-c2coc3cc4c(cc3c2=O)CC(OC(C)=O)C(C)(C)O4)ccc2c1C=CC(C)(C)O2 (stereo unspecified) [MUNDULONE ACETATE] | 87.47% | 71.78%
COC(=O)C[C@H]1C(C)(C)[C@@H](O)[C@@H]2CC3=C4C=C(OC)O[C@@H](c5ccoc5)[C@]4(C)CCC3[C@@]1(C)C2=O (stereo partly drawn) [3-DEOXO-3beta-HYDROXYMEXICANOLIDE 16-ENOL ETHER] | 106.5% | 27.18%
Cl.O=C(COc1ccc(Cl)cc1)N1CCN(Cc2ccc3c(c2)OCO3)CC1 [FIPEXIDE HYDROCHLORIDE] | 95% | 103.1%
CC(C)CC(NC(=O)OCC1c2ccccc2-c2ccccc21)C(=O)O (single isomer, unassigned) [N- (9-FLUORENYLMETHOXYCARBONYL)-L-LEUCINE] | 48.34% | 32.48%
CC(N)C(=O)OC(C)(C)Cc1ccc(Cl)cc1 (stereo unspecified) [ALAPROCLATE] | 98.54% | 84.52%
CCCOc1ccccc1-c1nc2nn[nH]c2c(=O)[nH]1 [ZAPRINAST] | 86.99% | 98.85%
C[N+]1(C)CCCC(OC(=O)C(O)(c2ccccc2)c2ccccc2)C1.[Br-] (stereo unspecified) [MEPENZOLATE BROMIDE] | 106.1% | 121.8%
COc1ccc(-c2cc(=O)c3cc(OC)ccc3o2)cc1 [6,4'-DIMETHOXYFLAVONE] | 110.4% | 34.44%
C#C[C@]1(O)CC[C@H]2[C@@H]3CCC4=Cc5oncc5C[C@]4(C)[C@H]3CC[C@@]21C [DANAZOL] | 95.7% | 80.9%
N#C[C@H](O[C@@H]1O[C@H](CO[C@@H]2O[C@H](CO)[C@@H](O)[C@H](O)[C@H]2O)[C@@H](O)[C@H](O)[C@H]1O)c1ccccc1 [AMYGDALIN] | 103.6% | 118.1%
CC(C)=CCC[C@@H](C)[C@H]1CC[C@@]2(C)C3=C(CC[C@]12C)[C@@]1(C)CC[C@H](O)C(C)(C)[C@@H]1CC3 [LANOSTEROL] | 90.91% | 53.97%
O=c1oc2ccccc2cc1O [3-HYDROXYCOUMARIN] | 116.7% | 126.8%

SMILES | residual activity [1] | residual activity [2]
CC[C@@]1(O)C[C@H](O[C@H]2C[C@H](N(C)C)[C@H](O)[C@H](C)O2)c2c(cc3c(c2O)C(=O)c2c(O)cccc2C3=O)[C@H]1C(=O)OC.Cl [AKLAVINE HYDROCHLORIDE] | 83.91% | 70.22%
C=CCc1cc(OC)c2c(c1OC)OCO2 [APIOL] | 107.2% | 213.1%
NCCc1ccc(O)cc1 [TYRAMINE] | 85.38% | 59.9%
COc1cc([C@@H]2c3cc4c(cc3[C@@H](O)[C@H]3COC(=O)[C@H]23)OCO4)cc(OC)c1O [4'-DEMETHYLEPIPODOPHYLLOTOXIN] | 69.62% | 42.52%
C#C[C@]1(OC(C)=O)CC[C@H]2[C@@H]3CCC4=CC(=O)CC[C@@H]4[C@H]3CC[C@@]21C [NORETHINDRONE ACETATE] | 104.9% | 106.9%
NCC[C@H](O)C(=O)N[C@@H]1C[C@H](N)[C@@H](O[C@H]2O[C@H](CN)[C@@H](O)[C@H](O)[C@H]2O)[C@H](O)[C@H]1O[C@H]1O[C@H](CO)[C@@H](O)[C@H](N)[C@H]1O.O=S(=O)(O)O | 92.21% | 72.99%
Cl.Cl.Fc1ccc(C(c2ccc(F)cc2)N2CCN(C/C=C/c3ccccc3)CC2)cc1 [FLUNARIZINE HYDROCHLORIDE] | 102.7% | 117.4%
COC1=C[C@]23CCCN2CCc2cc4c(cc2[C@@H]3[C@@H]1O)OCO4 [CEPHALOTAXINE] | 77.89% | 77.26%
NS(=O)(=O)c1cc(C2(O)NC(=O)c3ccccc32)ccc1Cl (stereo unspecified) [CHLORTHALIDONE] | 67.04% | 62.41%
Cl.O=C1CC[C@@]2(O)[C@H]3Cc4ccc(O)c5c4[C@@]2(CCN3CC2CC2)[C@H]1O5 [NALTREXONE HYDROCHLORIDE] | 86.99% | 71.98%
COc1ccc(-c2coc3cc(OC)cc(OC)c3c2=O)cc1 [BIOCHANIN A, DIMETHYL ETHER] | 81.69% | 100.7%
CCOC(=O)[C@H](CCc1ccccc1)N[C@@H](C)C(=O)N1[C@H](C(=O)O)C[C@H]2CCCC[C@@H]21 [TRANDOLAPRIL] | 102.1% | 118%
C[C@@H]1O[C@@H](O[C@H]2C[C@@H](O)[C@]3(CO)[C@H]4[C@H](O)C[C@]5(C)[C@@H](C6=CC(=O)OC6)CC[C@]5(O)[C@@H]4CC[C@]3(O)C2)[C@H](O)[C@H](O)[C@H]1O [OUABAIN] | 98.13% | 108.1%
C=C1C2CC[C@@]3(C)[C@H](c4ccoc4)OC(=O)C[C@]13O[C@H]1CC(=O)C(C)(C)[C@H](C(O)C(=O)OC)[C@@]21C (stereo partly specified) [6-HYDROXYANGOLENSIC ACID METHYL ESTER] | 61.1% | 23.65%
Oc1c(I)cc(I)c2cccnc12 [IODOQUINOL] | 87.46% | 86.7%
Cn1c(=O)c2c(ncn2CC(O)CO)n(C)c1=O (stereo unspecified) [DYPHYLLINE] | 94.34% | 92.75%
C=C1CCC(=O)C(C)CCC2C1CC2(C)C (stereo unspecified) [DIHYDROCARYOPHYLLEN-5-ONE] | 39.09% | 24.21%
O=c1[nH]c(=O)n([C@H]2C[C@H](O)[C@@H](CO)O2)cc1C(F)(F)F [TRIFLURIDINE] | 84.35% | 64.99%
CC(=O)O[C@H]1CC[C@]2(C)[C@H]3CC[C@@H]4[C@@H]5CC(C)(C)CC[C@]5(C(=O)O)CC[C@@]4(C)[C@]3(C)CC[C@H]2C1(C)C | 103.7% | 112.3%
CC(=O)Oc1ccc(C(c2ccc(OC(C)=O)cc2)c2ccccn2)cc1 [BISACODYL] | 103.3% | 97.08%
CCCCN(CCCC)CCCOC(=O)c1ccc(N)cc1 [BUTACAINE] | 114.4% | 93.87%
